Results published in BindingDB's records for PubMed 31865013 (n/a, 2020).

Target: T1, Histone deacetylase 6 (Homo sapiens, UniProt Q9UBN7)
T1 sequence (Q9UBN7 whole entry): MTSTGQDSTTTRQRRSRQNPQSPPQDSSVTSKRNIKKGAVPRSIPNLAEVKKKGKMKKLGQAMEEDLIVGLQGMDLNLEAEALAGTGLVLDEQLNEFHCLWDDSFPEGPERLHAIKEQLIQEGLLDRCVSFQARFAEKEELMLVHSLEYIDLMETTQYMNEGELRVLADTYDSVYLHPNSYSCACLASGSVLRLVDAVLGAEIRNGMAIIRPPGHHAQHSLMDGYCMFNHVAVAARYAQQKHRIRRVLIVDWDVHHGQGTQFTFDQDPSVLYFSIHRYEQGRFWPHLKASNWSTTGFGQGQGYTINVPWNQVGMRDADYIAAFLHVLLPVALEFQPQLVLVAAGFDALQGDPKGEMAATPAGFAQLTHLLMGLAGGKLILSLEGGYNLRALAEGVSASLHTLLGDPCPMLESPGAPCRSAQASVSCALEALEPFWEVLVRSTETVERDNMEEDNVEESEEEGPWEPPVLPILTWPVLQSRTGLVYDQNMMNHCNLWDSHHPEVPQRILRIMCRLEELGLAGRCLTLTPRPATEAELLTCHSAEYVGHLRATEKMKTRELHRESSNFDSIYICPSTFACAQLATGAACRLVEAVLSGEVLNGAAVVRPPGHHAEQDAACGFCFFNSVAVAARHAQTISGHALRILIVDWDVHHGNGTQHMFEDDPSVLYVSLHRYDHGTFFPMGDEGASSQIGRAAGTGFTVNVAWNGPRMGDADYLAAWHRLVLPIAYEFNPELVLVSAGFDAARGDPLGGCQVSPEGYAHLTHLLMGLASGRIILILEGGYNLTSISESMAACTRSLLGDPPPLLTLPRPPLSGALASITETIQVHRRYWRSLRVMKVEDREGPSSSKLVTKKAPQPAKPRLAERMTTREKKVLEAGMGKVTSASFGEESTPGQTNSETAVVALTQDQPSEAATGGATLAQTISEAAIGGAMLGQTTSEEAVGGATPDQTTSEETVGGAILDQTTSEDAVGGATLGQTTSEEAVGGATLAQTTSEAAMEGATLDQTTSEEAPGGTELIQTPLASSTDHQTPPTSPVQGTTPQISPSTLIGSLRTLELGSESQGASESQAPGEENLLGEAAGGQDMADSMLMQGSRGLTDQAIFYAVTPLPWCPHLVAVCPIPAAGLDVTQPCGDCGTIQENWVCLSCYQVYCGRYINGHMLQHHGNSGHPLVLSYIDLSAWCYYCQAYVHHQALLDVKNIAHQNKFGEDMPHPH
Assay: Inhibition of HDAC6 (unknown origin) using Fluor de lys as substrate by fluorescence based analysis

Row | SMILES | IC50
1 | CCc1cc(Cc2cnc(N)nc2N)cc(CC)c1N | 18 nM
2 | CCCCCCCCCCCCOc1c(CC)cc(Cc2cnc(N)nc2N)cc1CC | 11 nM
3 | Nc1ncc(Cc2ccc3c(c2)CCCN3)c(N)n1 | 17 nM
4 | COCCOc1cc(Cc2cnc(N)nc2N)cc2c1NCCC2 | 16 nM
